Source: patent US20250206757A1 (GASHERBRUM BIO, INC., priority 2022, published 2025)

Each compound was assayed against GLP-1 Receptor (Homo sapiens, UniProt P43220) (assay: GLP-1R agonist cAMP stimulation assay (HEK293/GLP1R/CRE-LUC cells, HTRF cAMP dynamic 2 kit)). Conditions: HEK293/CRE-Luc cell line stably expressing the GLP-1 Receptor; 30 min incubation at 37° C.
Type: cell-based
Protocol: Activation of GLP-1 receptor is known to stimulate cyclic AMP (cAMP) production in cells which indicates primary coupling to the Gas subunit of the G protein heterotrimeric complex.
To optimize functional activity directed toward Gas coupling, a HEK293/CRE-Luc cell line developed by HDB stably expressing the GLP-1 Receptor was used. 200× concentration of compound working solutions were prepared (Agilent Technologies Bravo) with 1/2 log serial dilution in 384-well Echo LDV plate (Labcyte, Cat #LP-0200). 50 nL/well 200× concentration of compound working solutions were moved to 384-well white low volume plate (Greiner, Cat #784075) using Labcyte ECHO550. 1×10^5 cells/mL HEK293/GLP1R/CRE-LUC (HD Biosciences) cell suspensions prepared with assay buffer [DPBS containing 0.5 mM IBMX (Sigma, Cat #15879) and 0.10% BSA (GENVIEW, Cat #FA016-100g)], 10 μL cell suspensions were added to each well of previous generated assay plate which already contains 50 nL compound at 200× concentration using ThermoFisher Multidrop Combi (1000 cells/well). Seal the plate and incubate at 37° C. with 5% CO2 for 30 min.
After incubation the cAMP assay signal was generated using cAMP dynamic 2 Kit (Cisbio). 5 μL cAMP-d2 working solution was added to each well, followed with 5 μL Anti-cAMP antibody-cryptate working solution added to each well using ThermoFisher Multidrop Combi. Incubate at room temperature for 1 hour protected from light. Read the fluorescence at 665 and 615 nm with Reader PerkinElmer EnVision.

Sequence of GLP-1 Receptor (P43220 24-463): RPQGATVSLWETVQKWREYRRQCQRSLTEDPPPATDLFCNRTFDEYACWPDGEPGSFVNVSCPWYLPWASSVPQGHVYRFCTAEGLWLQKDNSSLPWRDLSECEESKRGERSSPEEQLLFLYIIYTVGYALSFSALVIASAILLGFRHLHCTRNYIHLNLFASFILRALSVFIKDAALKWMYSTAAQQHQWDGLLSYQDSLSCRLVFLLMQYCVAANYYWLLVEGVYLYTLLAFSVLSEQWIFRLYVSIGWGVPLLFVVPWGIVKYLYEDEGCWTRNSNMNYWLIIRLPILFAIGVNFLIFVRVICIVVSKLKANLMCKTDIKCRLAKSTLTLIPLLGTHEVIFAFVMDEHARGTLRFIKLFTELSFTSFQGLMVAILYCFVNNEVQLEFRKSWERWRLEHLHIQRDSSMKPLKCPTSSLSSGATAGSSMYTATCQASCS

| EC50 [nM] | SMILES |
| --- | --- |
| < 1 | Cc1cc2c(nc1OCc1c(F)cc(Cl)cc1F)CN(Cc1nc3cc(-c4nnn[nH]4)ncc3n1C[C@@H]1CCO1)CC2 [Compound 91, 2-[(4-chloro-2,6-difluorophenyl)methoxy]-3-methyl-7-[(3-{[(2S)-oxetan-2-yl]methyl}-6-(1H-1,2,3,4-tetrazol-5-yl)-3H-imidazo[4,5-c]pyridin-2-yl)methyl]-5,6,7,8-tetrahydro-1,7-naphthyridine] |
| 1 to 300 | CN(C)C(=O)c1nnc(-c2cc3nc(CN4CCc5cc(C(F)(F)F)c(OCc6ccc(Cl)cc6F)nc5C4)n(C[C@@H]4CCO4)c3cn2)[nH]1 [Compound 95, 5-[2-({2-[(4-chloro-2-fluorophenyl)methoxy]-3-(trifluoromethyl)-5,6,7,8-tetrahydro-1,7-naphthyridin-7-yl}methyl)-3-{[(2S)-oxetan-2-yl]methyl}-3H-imidazo[4,5-c]pyridin-6-yl]-N,N-dimethyl-4H-1,2,4-triazole-3-carboxamide] |
| < 1 | O=c1[nH]c(-c2cc3nc(CN4CCc5cc(C(F)(F)F)c(OCc6c(F)cc(Cl)cc6F)nc5C4)n(C[C@@H]4CCO4)c3cn2)no1 [Compound 32, 3-[2-({2-[(4-chloro-2,6-difluorophenyl)methoxy]-3-(trifluoromethyl)-5,6,7,8-tetrahydro-1,7-naphthyridin-7-yl}methyl)-3-{1[(2S)-oxetan-2-yl]methyl}-3H-imidazo[4,5-c]pyridin-6-yl]-4,5-dihydro-1,2,4-oxadiazol-5-one] |
| 1 to 300 | CS(=O)(=O)c1nnc(-c2ccc3c(c2)nc(CN2CCc4cc(C(F)(F)F)c(OCc5ccc(Cl)cc5F)nc4C2)n3C[C@@H]2CCO2)[nH]1 [Compound 87, 2-[(4-chloro-2-fluorophenyl)methoxy]-7-{[5-(5-methanesulfonyl-4H-1,2,4-triazol-3-yl)-1-{[(2S)-oxetan-2-yl]methyl}-1H-1,3-benzodiazol-2-yl]methyl}-3-(trifluoromethyl)-5,6,7,8-tetrahydro-1,7-naphthyridine] |
| 1 to 300 | Fc1cc(Cl)ccc1COc1nc2c(cc1C(F)(F)F)CCN(Cc1nc3cc(-c4nnc(C(F)(F)F)[nH]4)ncc3n1C[C@H]1CCOC1)C2 [Compound 76, 2-[(4-chloro-2-fluorophenyl)methoxy]-7-[(3-{[(3R)-oxolan-3-yl]methyl}-6-[5-(trifluoromethyl)-4H-1,2,4-triazol-3-yl]-3H-imidazo[4,5-c]pyridin-2-yl)methyl]-3-(trifluoromethyl)-5,6,7,8-tetrahydro-1,7-naphthyridine] |

The next lines start with the compound.

| SMILES | EC50 [nM] |
| --- | --- |
| Cc1cc2c(nc1OCc1c(F)cc(Cl)cc1F)CN(Cc1nc3cc(-c4noc(=O)[nH]4)ccc3n1C[C@@H]1CCO1)CC2 [Compound 37, 3-[2-({2-[(4-chloro-2,6-difluorophenyl)methoxy]-3-methyl-5,6,7,8-tetrahydro-1,7-naphthyridin-7-yl}methyl)-1-{[(2S)-oxetan-2-yl]methyl}-1H-1,3-benzodiazol-5-yl]-4,5-dihydro-1,2,4-oxadiazol-5-one] | < 1 |
| N#Cc1nnc(-c2cnc3c(c2)nc(CN2CCc4cc(C(F)(F)F)c(OCc5ccc(Cl)cc5F)nc4C2)n3C[C@@H]2CCO2)[nH]1 [Compound 17, 5-[2-({2-[(4-chloro-2-fluorophenyl)methoxy]-3-(trifluoromethyl)-5,6,7,8-tetrahydro-1,7-naphthyridin-7-yl}methyl)-3-{1[(2S)-oxetan-2-yl]methyl}-3H-imidazo[4,5-b]pyridin-6-yl]-4H-1,2,4-triazole-3-carbonitrile] | < 1 |
| O=c1[nH]c(-c2ccc3c(nc(CN4CCc5cc(C(F)(F)F)c(OCc6c(F)cc(Cl)cc6F)nc5C4)n3C[C@@H]3CCO3)c2F)no1 [Compound 48, 3-[2-({2-[(4-chloro-2,6-difluorophenyl)methoxy]-3-(trifluoromethyl)-5,6,7,8-tetrahydro-1,7-naphthyridin-7-yl}methyl)-4-fluoro-1-{[(2S)-oxetan-2-yl]methyl}-1H-1,3-benzodiazol-5-yl]-4,5-dihydro-1,2,4-oxadiazol-5-one] | 1 to 300 |
| N#Cc1nnc(-c2cc3nc(CN4CCc5cc(C(F)(F)F)c(NCc6ccc(Cl)cc6F)nc5C4)n(C[C@@H]4CCO4)c3cn2)[nH]1 [Compound 108, 5-{2-[(2-{[(4-chloro-2-fluorophenyl)methyl]amino}-3-(trifluoromethyl)-5,6,7,8-tetrahydro-1,7-naphthyridin-7-yl)methyl]-3-{[(2S)-oxetan-2-yl]methyl}-3H-imidazo[4,5-c]pyridin-6-yl}-4H-1,2,4-triazole-3-carbonitrile] | < 1 |
| O=c1[nH]c(-c2ccc3c(nc(CN4CCc5cc(C(F)(F)F)c(OCc6ccc(Cl)cc6F)nc5C4)n3C[C@@H]3CCO3)c2F)no1 [Compound 47, 3-[2-({2-[(4-chloro-2-fluorophenyl)methoxy]-3-(trifluoromethyl)-5,6,7,8-tetrahydro-1,7-naphthyridin-7-yl}methyl)-4-fluoro-1-{[(2S)-oxetan-2-yl]methyl}-1H-1,3-benzodiazol-5-yl]-4,5-dihydro-1,2,4-oxadiazol-5-one] | < 1 |
| O=c1[nH]c(-c2cc3nc(CN4CCc5cc(C(F)(F)F)c(NCc6c(F)cc(Cl)cc6F)nc5C4)n(C[C@@H]4CCO4)c3cn2)no1 [Compound 105, 3-{2-[(2-{[(4-chloro-2,6-difluorophenyl)methyl]amino}-3-(trifluoromethyl)-5,6,7,8-tetrahydro-1,7-naphthyridin-7-yl)methyl]-3-{[(2S)-oxetan-2-yl]methyl}-3H-imidazo[4,5-c]pyridin-6-yl}-4,5-dihydro-1,2,4-oxadiazol-5-one] | < 1 |
| Fc1cc(Cl)cc(F)c1COc1nc2c(cc1C(F)(F)F)CCN(Cc1nc3cc(-c4nnn[nH]4)ncc3n1C[C@@H]1CCO1)C2 [Compound 90, 2-[(4-chloro-2,6-difluorophenyl)methoxy]-7-[(3-{[(2S)-oxetan-2-yl]methyl}-6-(11H-1,2,3,4-tetrazol-5-yl)-3H-imidazo[4,5-c]pyridin-2-yl)methyl]-3-(trifluoromethyl)-5,6,7,8-tetrahydro-1,7-naphthyridine] | < 1 |
| COCCn1c(CN2CCc3cc(C(F)(F)F)c(OCc4ccc(Cl)cc4F)nc3C2)nc2cc(-c3nnc(C(F)(F)F)[nH]3)ncc21 [Compound 80, 2-[(4-chloro-2-fluorophenyl)methoxy]-7-{[3-(2-methoxyethyl)-6-[5-(trifluoromethyl)-4H-1,2,4-triazol-3-yl]-3H-imidazo[4,5-c]pyridin-2-yl]methyl}-3-(trifluoromethyl)-5,6,7,8-tetrahydro-1,7-naphthyridine] | 1 to 300 |
| N#Cc1ccc(COc2nc3c(cc2C(F)(F)F)CCN(Cc2nc4cc(-c5nnc(C(F)(F)F)[nH]5)ncc4n2C[C@@H]2CCO2)C3)c(F)c1 [Compound 75, 3-fluoro-4-[({7-[(3-{[(2S)-oxetan-2-yl]methyl}-6-[5-(trifluoromethyl)-4H-1,2,4-triazol-3-yl]-3H-imidazo[4,5-c]pyridin-2-yl)methyl]-3-(trifluoromethyl)-5,6,7,8-tetrahydro-1,7-naphthyridin-2-yl}oxy)methyl]benzonitrile] | < 1 |
| O=C(NCC(F)(F)F)c1cc2nc(CN3CCc4cc(C(F)(F)F)c(OCc5ccc(Cl)cc5F)nc4C3)n(C[C@@H]3CCO3)c2cn1 [Compound 23, 2-({2-[(4-chloro-2-fluorophenyl)methoxy]-3-(trifluoromethyl)-5,6,7,8-tetrahydro-1,7-naphthyridin-7-yl}methyl)-3-{[(2S)-oxetan-2-yl]methyl}-N-(2,2,2-trifluoroethyl)-3H-imidazo[4,5-c]pyridine-6-carboxamide] | 1 to 300 |
